pEC50, pIC50: −log10 of the molar value. Where a SMILES comes first, the peptide text is derived from it. Where no end group is shown, it is not given here. [ ]: non-standard residue; d: D form. The star is where a group is joined. Hexanoyl = CCCCCC(=O)*; Aib = CC(C)(N)C(=O)O
Experiments:
human PAC1 = biological target: T1, human PAC1 (Homo sapiens, UniProt P41586); assay: Filter binding assay, membranes of cells transiently transfected with human PAC1, 125I-labeled PACAP-27 tracer (Table 2); design: expressed in transfected cells; conditions: read-out: Human PAC1 Receptor Binding
T1 sequence (P41586 21-468): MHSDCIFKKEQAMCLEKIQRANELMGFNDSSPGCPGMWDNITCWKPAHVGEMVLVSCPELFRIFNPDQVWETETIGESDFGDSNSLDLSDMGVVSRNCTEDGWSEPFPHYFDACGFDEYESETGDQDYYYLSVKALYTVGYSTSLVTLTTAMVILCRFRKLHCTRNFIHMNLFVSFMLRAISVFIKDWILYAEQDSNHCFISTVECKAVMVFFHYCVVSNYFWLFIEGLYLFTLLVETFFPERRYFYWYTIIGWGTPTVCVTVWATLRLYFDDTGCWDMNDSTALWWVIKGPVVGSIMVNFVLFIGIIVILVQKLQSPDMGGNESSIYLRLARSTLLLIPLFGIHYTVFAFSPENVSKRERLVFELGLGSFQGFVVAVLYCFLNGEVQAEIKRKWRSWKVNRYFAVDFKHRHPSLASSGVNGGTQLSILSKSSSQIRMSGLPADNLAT
Procedure, shortened: (§1)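 Radioligand displacement was measured with 2.5 μg membrane protein per well and roughly 40000 cpm of iodinated tracer. After a 1-hour incubation, bound and free label were separated on BSA-blocked glass-fibre filters and quantified by scintillation.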

human VPAC1 = biological target: T2, human VPAC1 (Homo sapiens, UniProt P32241); assay: Filter binding assay, membranes of cells transiently transfected with human VPAC1, 125I-labeled VIP tracer (Table 2); design: expressed in transfected cells; conditions: read-out: Human VPAC1 Receptor Binding
T2 sequence (P32241 31-457): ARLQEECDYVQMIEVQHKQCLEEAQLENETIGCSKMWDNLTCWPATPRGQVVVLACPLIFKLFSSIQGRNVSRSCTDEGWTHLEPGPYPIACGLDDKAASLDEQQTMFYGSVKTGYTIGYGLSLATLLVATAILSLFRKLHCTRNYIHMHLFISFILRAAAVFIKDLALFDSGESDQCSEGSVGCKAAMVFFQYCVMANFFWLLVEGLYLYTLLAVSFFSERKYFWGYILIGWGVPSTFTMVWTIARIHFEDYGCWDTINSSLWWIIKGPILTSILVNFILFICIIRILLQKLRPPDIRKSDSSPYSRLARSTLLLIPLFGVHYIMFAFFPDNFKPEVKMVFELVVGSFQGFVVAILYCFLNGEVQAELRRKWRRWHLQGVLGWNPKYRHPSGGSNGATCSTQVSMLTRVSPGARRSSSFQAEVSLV
Procedure, shortened: as §1

[1] = Rat serum stability studies (remaining active peptide by DiscoveRx cAMP on CHO-VPAC2 cells); assay type: in vitro ADME
Procedure, shortened: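 EC50 from a DiscoveRx cAMP read-out on CHO-VPAC2 cells indexes how much peptide stays active after 18 h in rat serum at 37° C without aprotinin, against an aprotinin-protected 4° C aliquot.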

human VPAC2 [2] = biological target: T3, human VPAC2 (Homo sapiens, UniProt P41587); assay: Filter binding assay, membranes of stable VPAC2 cell line, 125I-labeled VIP tracer (Table 2); conditions: read-out: Human VPAC2 Receptor Binding
T3 construct: expressed in transfected cells
T3 sequence (P41587 24-438): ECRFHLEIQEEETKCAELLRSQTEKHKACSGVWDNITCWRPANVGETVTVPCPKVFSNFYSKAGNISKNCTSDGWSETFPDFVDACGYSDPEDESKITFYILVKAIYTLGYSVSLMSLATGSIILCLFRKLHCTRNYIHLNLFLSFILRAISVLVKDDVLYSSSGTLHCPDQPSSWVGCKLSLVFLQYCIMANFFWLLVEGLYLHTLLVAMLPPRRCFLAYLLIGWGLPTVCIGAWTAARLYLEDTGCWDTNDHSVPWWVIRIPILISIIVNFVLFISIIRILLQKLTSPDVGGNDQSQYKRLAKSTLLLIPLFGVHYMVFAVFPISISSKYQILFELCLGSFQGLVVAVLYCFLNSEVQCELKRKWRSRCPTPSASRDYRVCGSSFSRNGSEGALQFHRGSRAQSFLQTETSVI
Procedure, shortened: as §1

human VPAC2 [3] = biological target: T3, human VPAC2; assay: Alpha screen cAMP in vitro potency, human VPAC2 receptor; assay type: cell-based; conditions: cAMP generation; single result from two analyses performed in a single run; read-out: Human VPAC2 Receptor: Alpha Screen EC50
Procedure, shortened: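 Cells were detached with enzyme-free dissociation buffer, washed into stimulation buffer and used at 50,000 cells per data point. Stimuli and AlphaScreen acceptor beads were added for 60 minutes, then lysis buffer with donor beads for 60 to 120 minutes; the AlphaScreen signal reports intracellular cAMP.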

| Compound | pIC50 (human PAC1) | pIC50 (human VPAC1) | Rat Serum Stability (estimated purity in % after 18 hours) [1] | pIC50 (human VPAC2 [2]) | pEC50 (human VPAC2 [3]) |
| --- | --- | --- | --- | --- | --- |
| Hexanoyl-HSDAVFTDNYTRLRKQVAAKAYLQSIKNKRYGGPSSGAPPPS [Agonist P184] | 6.47 | 6.49 | 0.29% | 9.64 | 9.66 |
| Hexanoyl-HSDAVFTDNYTRLRKQVAAKKYLQSIKNKRYGGPSSGAPPPC [Agonist P120] | 6.24 | – | 5% | 9.36 | 10.22 |
| Hexanoyl-HSDAVFTDNYTRLRKQVAAKKY[Aib]QSIKNKRYGGPSSGAPPPS [Agonist P236] | 6.65 | 6.23 | 0.79% | 9.43 | 9.92 |
| CCCCCC(=O)N[C@@H](Cc1c[nH]cn1)C(=O)N[C@@H](CO)C(=O)N[C@@H](CC(=O)O)C(=O)N[C@@H](C)C(=O)N[C@H](C(=O)N[C@@H](Cc1ccccc1)C(=O)N[C@H](C(=O)N[C@@H](CC(=O)O)C(=O)N[C@@H](CC(N)=O)C(=O)N[C@@H](Cc1ccc(O)cc1)C(=O)N[C@H](C(=O)N[C@@H](CCCNC(=N)N)C(=O)N[C@@H](CC(C)C)C(=O)N[C@@H](CCCNC(=N)N)C(=O)NC(C)(C)C(=O)N[C@@H](CCC(N)=O)C(=O)N[C@H](C(=O)N[C@@H](C)C(=O)N[C@@H](C)C(=O)NC(C)(C)C(=O)N[C@@H](CCCCN)C(=O)N[C@@H](Cc1ccc(O)cc1)C(=O)N[C@@H](CC(C)C)C(=O)N[C@@H](CCC(N)=O)C(=O)N[C@@H](CO)C(=O)N[C@H](C(=O)N[C@@H](CCCCN)C(=O)N[C@@H](CCC(N)=O)C(=O)NCC(=O)NCC(=O)N1CCC[C@H]1C(=O)N[C@@H](CO)C(=O)N[C@@H](CO)C(=O)NCC(=O)N[C@@H](C)C(=O)N1CCC[C@H]1C(=O)N1CCC[C@H]1C(=O)N1CCC[C@H]1C(=O)N[C@@H](CO)C(=O)O)[C@@H](C)CC)C(C)C)[C@@H](C)O)[C@@H](C)O)C(C)C [Agonist P297] (Hexanoyl-HSDAVFTDNYTRLR[Aib]QVAA[Aib]KYLQSIKQGGPSSGAPPPS-OH; C-terminus assumed) | < 4.60 | < 5.52 | 21.17% | 8.71 | 9.44 |
| Hexanoyl-HSD[Aib]VFTDNYTRLRKQVAAKKYLQSIKNKRYGGPSSGAPPPS [Agonist P209] | 6.47 | 6.89 | 0.13% | 9.70 | 10.00 |
| Hexanoyl-HSDAVFTDNYTRLAKQVAAKKYLQSIKNKRYGGPSSGAPPPS [Agonist P173] | 6.12 | 5.75 | 1.04% | 9.26 | 9.60 |
| Hexanoyl-HSDAVFTDNYTRLQKQVAAKKYLQSIKNKRYGGPSSGAPPPS [Agonist P172] | 6.30 | 6.39 | 5.95% | 8.45 | 9.54 |
| Hexanoyl-HSDAVFTDNYTRLRKQVAALKYLQSIKNKRYGGPSSGAPPPS [Agonist P151] | 6.14 | 6.69 | 0.35% | 9.14 | 10.15 |
| CCCCCC(=O)N[C@@H](Cc1c[nH]cn1)C(=O)N[C@@H](CO)C(=O)N[C@@H](CC(=O)O)C(=O)N[C@@H](C)C(=O)N[C@H](C(=O)N[C@@H](Cc1ccccc1)C(=O)N[C@H](C(=O)N[C@@H](CC(=O)O)C(=O)N[C@@H](CCC(N)=O)C(=O)N[C@@H](Cc1ccc(O)cc1)C(=O)N[C@H](C(=O)N[C@@H](CCCNC(=N)N)C(=O)N[C@@H](CC(C)C)C(=O)N[C@@H](CCCNC(=N)N)C(=O)N[C@@H](CCCNC(=N)N)C(=O)N[C@@H](CCC(N)=O)C(=O)N[C@H](C(=O)N[C@@H](C)C(=O)N[C@@H](C)C(=O)N[C@@H](CCCNC(=N)N)C(=O)N[C@@H](CCCCN)C(=O)N[C@@H](Cc1ccc(O)cc1)C(=O)N[C@@H](CC(C)C)C(=O)N[C@@H](CCC(N)=O)C(=O)N[C@@H](CO)C(=O)N[C@H](C(=O)N[C@@H](CCCNC(=N)N)C(=O)N[C@@H](CCC(N)=O)C(=O)NCC(=O)NCC(=O)N1CCC[C@H]1C(=O)N[C@@H](CO)C(=O)N[C@@H](CO)C(=O)NCC(=O)N[C@@H](C)C(=O)N1CCC[C@H]1C(=O)N1CCC[C@H]1C(=O)N1CCC[C@H]1C(=O)N[C@@H](CO)C(=O)O)[C@@H](C)CC)C(C)C)[C@@H](C)O)[C@@H](C)O)C(C)C [Agonist P220] (Hexanoyl-HSDAVFTDQYTRLRRQVAARKYLQSIRQGGPSSGAPPPS-OH; C-terminus assumed) | 6.07 | 8.23 | 0.08% | 9.60 | 9.92 |
| Hexanoyl-HSDAVFTDNYTRLRK(Ac)QVAAKK(Ac)YLQSIKNKRYGGPSSGAPPPS [Agonist P194] | 6.20 | 6.76 | 1.11% | 9.55 | 9.89 |
| Hexanoyl-HSDAVFTDNYTRLQ[Aib]QVAAKKYLQSIKNKRYGGPSSGAPPPS [Agonist P258] | < 4.60 | < 5.52 | 9.47% | 9.20 | 9.77 |
| Hexanoyl-HSDAVFTDNYTRLQKQVAA[Aib]KYLQSIKNKRYGGPSSGAPPPS [Agonist P250] | < 4.60 | 6.07 | 7.11% | 9.20 | 9.74 |
| CCCCCC(=O)N[C@@H](Cc1c[nH]cn1)C(=O)N[C@@H](CO)C(=O)N[C@@H](CC(=O)O)C(=O)N[C@@H](C)C(=O)N[C@H](C(=O)N[C@@H](Cc1ccccc1)C(=O)N[C@H](C(=O)N[C@@H](CC(=O)O)C(=O)N[C@@H](CC(N)=O)C(=O)N[C@@H](Cc1ccc(O)cc1)C(=O)N[C@H](C(=O)N[C@@H](CCCNC(=N)N)C(=O)N[C@@H](CC(C)C)C(=O)NC(C)(C)C(=O)N[C@@H](CCCCN)C(=O)N[C@@H](CCC(N)=O)C(=O)N[C@H](C(=O)N[C@@H](C)C(=O)N[C@@H](C)C(=O)NC(C)(C)C(=O)N[C@@H](CCCCN)C(=O)N[C@@H](Cc1ccc(O)cc1)C(=O)N[C@@H](CC(C)C)C(=O)N[C@@H](CCC(N)=O)C(=O)N[C@@H](CO)C(=O)N[C@H](C(=O)N[C@@H](CCCCN)C(=O)N[C@@H](CCC(N)=O)C(=O)NCC(=O)NCC(=O)N1CCC[C@H]1C(=O)N[C@@H](CO)C(=O)N[C@@H](CO)C(=O)NCC(=O)N[C@@H](C)C(=O)N1CCC[C@H]1C(=O)N1CCC[C@H]1C(=O)N1CCC[C@H]1C(=O)N[C@@H](CO)C(=O)O)[C@@H](C)CC)C(C)C)[C@@H](C)O)[C@@H](C)O)C(C)C [Agonist P296] (Hexanoyl-HSDAVFTDNYTRL[Aib]KQVAA[Aib]KYLQSIKQGGPSSGAPPPS-OH; C-terminus assumed) | < 4.60 | < 5.52 | 42.26% | < 7.00 | – |
| Hexanoyl-HSDAVFTDNYTRL[Aib]KQVAAVKYLQSIKNKRYGGPSSGAPPPS [Agonist P269] | < 4.60 | < 5.52 | 23.85% | 8.00 | – |
| Hexanoyl-HSDAVFTDNYTRLRFQVAAKKYLQSIKNKRYGGPSSGAPPPS [Agonist P180] | 6.23 | < 5.52 | 1.14% | 8.25 | – |

Reference: patent publication US20080026996A1, “Selective Vpac2 Receptor Reptide Agonists” (ELI LILLY AND COMPANY, priority 2004, published 2008)
